Columns and labels:
Type in all cases: in vivo
[1] = system: galium (catchweed bedstraw, Galium aparine); assay: Test A postemergence application, visual injury rating 0-100
How it was run: (§1)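 Visual injury ratings (0, no effect; 100, complete control) were assigned relative to untreated plants 10 days after treatment. Test chemicals, formulated with a surfactant-containing non-phytotoxic solvent, were applied in loam-sand soil either as a directed soil spray before emergence or to emerged plants, and plants were kept in a greenhouse.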

corn (Zea mays) [2] = assay: as above
How it was run: as §1

soybean (Glycine max) [3] = assay: as above
How it was run: as §1

[4] = system: ragweed (common ragweed, Ambrosia artemisiifolia); assay: as above
How it was run: as §1

[5] = system: ryegrass, Italian (italian ryegrass, Lolium multiflorum); assay: as above
How it was run: as §1

[6] = system: palmer (palmer amaranth, palmer pigweed, Amaranthus palmeri); assay: as above
How it was run: as §1

[7] = system: barnyardgrass (Echinochloa crus-galli); assay: as above
How it was run: as §1

[8] = system: wheat (Triticum aestivum); assay: as above
How it was run: as §1

[9] = system: oat, wild (wild oat, Avena fatua); assay: as above
How it was run: as §1

[10] = system: blackgrass (Alopecurus myosuroides); assay: as above
How it was run: as §1

[11] = system: green foxtail (Setaria viridis); assay: as above
How it was run: as §1

[12] = system: horseweed (Erigeron canadensis); assay: as above
How it was run: as §1

kochia (Bassia scoparia) [13] = assay: as above
How it was run: as §1

[14] = system: sedge, umbrella (small-flower umbrella sedge, Cyperus difformis); assay: Test B flooded paddy test, visual plant response rating 0-100; conditions: 250 g ai/ha, Flood, applied to paddy water, evaluated after 13 days
How it was run: (§2)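 Plants were grown to the 2-leaf stage, then pots were flooded to 3 cm above the soil and compound was applied directly to the paddy water, with that depth kept throughout.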

[15] = system: ducksalad (Heteranthera limosa); assay: as above; conditions: 250 g ai/ha, Flood, applied to paddy water, evaluated after 13 days
How it was run: as §2

rice (Oryza sativa) = assay: as above; conditions: 250 g ai/ha, Flood, applied to paddy water, evaluated after 13 days
How it was run: as §2

[16] = system: barnyardgrass (Echinochloa crusgalli); assay: as above; conditions: 250 g ai/ha, Flood, applied to paddy water, evaluated after 13 days
How it was run: as §2

corn (Zea mays) [17] = assay: Test A preemergence soil spray, visual injury rating 0-100; conditions: 10 days
How it was run: as §1

soybean (Glycine max) [18] = assay: as above; conditions: 10 days
How it was run: as §1

[19] = system: ragweed (common ragweed, Ambrosia artemisiifolia); assay: as above; conditions: 10 days
How it was run: as §1

[20] = system: ryegrass, Italian (italian ryegrass, Lolium multiflorum); assay: as above; conditions: 10 days
How it was run: as §1

[21] = system: palmer (palmer amaranth, palmer pigweed, Amaranthus palmeri); assay: as above; conditions: 10 days
How it was run: as §1

[22] = system: barnyardgrass (Echinochloa crus-galli); assay: as above; conditions: 10 days
How it was run: as §1

[23] = system: wheat (Triticum aestivum); assay: as above; conditions: 10 days
How it was run: as §1

[24] = system: oat, wild (wild oat, Avena fatua); assay: as above; conditions: 10 days
How it was run: as §1

[25] = system: blackgrass (Alopecurus myosuroides); assay: as above; conditions: 10 days
How it was run: as §1

[26] = system: green foxtail (Setaria viridis); assay: as above; conditions: 10 days
How it was run: as §1

kochia (Bassia scoparia) [27] = assay: as above; conditions: 62 g ai/ha, 10 days, 0 = no effect, 100 = complete control
How it was run: as §1

[28] = 62 g ai/ha, postemergence, 10 days, 0 = no effect, 100 = complete control
[29] = Postemergence, 16 g ai/ha, greenhouse 10 days, 0 no effect, 100 complete control
[30] = 62 g ai/ha, 0 = no effect, 100 = complete control

`COC(=O)C1=CCC(NC(=O)C2(C)CN(c3cc(Cl)c(F)c(Cl)c3)C(=O)O2)C1` (stereo not drawn) [Compound 129] was tested, and the “Galium plant response rating (0-100)” value [1, 28] was 80, the “Galium plant response rating (0 to 100 scale)” value [1, 29] was 70 and the “Corn plant response rating (0-100)” value (corn (Zea mays) [2]; [28]) was 100. For the same compound, the “Corn plant response rating (0 to 100 scale)” value (corn (Zea mays) [2]; [29]) was 70, the “Soybean plant response rating (0-100)” value (soybean (Glycine max) [3]; [28]) was 70 and the “Soybean plant response rating (0 to 100 scale)” value (soybean (Glycine max) [3]; [29]) was 20. For the same compound, the “Ragweed plant response rating (0-100)” value [4, 28] was 30, the “Ragweed plant response rating (0 to 100 scale)” value [4, 29] was 0 and the “Ryegrass, Italian plant response rating (0-100)” value [5, 28] was 60. For the same compound, the “Ryegrass, Italian plant response rating (0 to 100 scale)” value [5, 29] was 30, the “Pigweed, Palmer plant response rating (0-100)” value [6, 28] was 70 and the “Pigweed, Palmer plant response rating (0 to 100 scale)” value [6, 29] was 50. The “Barnyardgrass plant response rating (0-100)” value [7, 28] was 100, the “Barnyardgrass plant response rating (0 to 100 scale)” value [7, 29] was 80 and the “Wheat plant response rating (0-100)” value [8, 28] was 80. The “Wheat plant response rating (0 to 100 scale)” value [8, 29] was 10, the “Oat, Wild plant response rating (0-100)” value [9, 28] was 20 and the “Oat, Wild plant response rating (0 to 100 scale)” value [9, 29] was 10. The “Blackgrass plant response rating (0-100)” value [10, 28] was 40, the “Blackgrass plant response rating (0 to 100 scale)” value [10, 29] was 20 and the “Foxtail, Green plant response rating (0-100)” value [11, 28] was 90. For the same compound, the “Foxtail, Green plant response rating (0 to 100 scale)” value [11, 29] was 20, the “Horseweed plant response rating (0-100)” value [12, 28] was 60 and the “Horseweed plant response rating (0 to 100 scale)” value [12, 29] was 0. The “Kochia plant response rating (0-100)” value (kochia (Bassia scoparia) [13]; [28]) was 80, the “Kochia plant response rating (0 to 100 scale)” value (kochia (Bassia scoparia) [13]; [29]) was 50 and the “Plant response rating, Sedge, Umbrella (0 to 100 scale, 0 is no effect and 100 is complete control)” value [14] was 90. The “Plant response rating, Ducksalad (0 to 100 scale, 0 is no effect and 100 is complete control)” value [15] was 70, the “Plant response rating, Rice (0 to 100 scale, 0 is no effect and 100 is complete control)” value (rice (Oryza sativa)) was 40 and the “Plant response rating, Barnyardgrass (0 to 100 scale, 0 is no effect and 100 is complete control)” value [16] was 50. For the same compound, the “Corn plant response rating” value (corn (Zea mays) [17]; 16 g ai/ha, 0 to 100 scale) was 0, the “Corn plant response rating (0-100)” value (corn (Zea mays) [17]; [30]) was 30 and the “Soybean plant response rating” value (soybean (Glycine max) [18]; 16 g ai/ha, 0 to 100 scale) was 0. For the same compound, the “Soybean plant response rating (0-100)” value (soybean (Glycine max) [18]; [30]) was 0, the “Ragweed plant response rating” value ([19]; 16 g ai/ha, 0 to 100 scale) was 0 and the “Ragweed plant response rating (0-100)” value [19, 30] was 0. The “Ryegrass, Italian plant response rating” value ([20]; 16 g ai/ha, 0 to 100 scale) was 0, the “Ryegrass, Italian plant response rating (0-100)” value [20, 30] was 40 and the “Pigweed, Palmer plant response rating” value ([21]; 16 g ai/ha, 0 to 100 scale) was 0. The “Pigweed, Palmer plant response rating (0-100)” value [21, 30] was 20, the “Barnyardgrass plant response rating” value ([22]; 16 g ai/ha, 0 to 100 scale) was 0 and the “Barnyardgrass plant response rating (0-100)” value [22, 30] was 30. For the same compound, the “Wheat plant response rating” value ([23]; 16 g ai/ha, 0 to 100 scale) was 0, the “Wheat plant response rating (0-100)” value [23, 30] was 20 and the “Oat, Wild plant response rating” value ([24]; 16 g ai/ha, 0 to 100 scale) was 0. The “Oat, Wild plant response rating (0-100)” value [24, 30] was 0, the “Blackgrass plant response rating” value ([25]; 16 g ai/ha, 0 to 100 scale) was 0 and the “Blackgrass plant response rating (0-100)” value [25, 30] was 0. For the same compound, the “Foxtail, Green plant response rating” value ([26]; 16 g ai/ha, 0 to 100 scale) was 0, the “Foxtail, Green plant response rating (0-100)” value [26, 30] was 0 and the “Kochia plant response rating (0-100)” value (kochia (Bassia scoparia) [27]) was 0.

— patent US20260285850A1, “SUBSTITUTED OXAZOLIDINONES AND IMIDAZOLINONES AS HERBICIDES” (FMC CORPORATION, priority 2023, published 2026)
